From US10392630B2, “Plants having increased tolerance to herbicides” (BASF AGRO B.V., priority 2013, dated 2019)
Residue numbers refer to the chain shown, from its start.

Columns and labels:
Experiment in all cases: biochemical
[1] = target: T1, Amaranthus mutant PPO (AMARE) (Amaranthus tuberculatus, UniProt Q0NZW9, F420M/R128I)
T1 sequence (Q0NZW9 1-534 R128I/F420M): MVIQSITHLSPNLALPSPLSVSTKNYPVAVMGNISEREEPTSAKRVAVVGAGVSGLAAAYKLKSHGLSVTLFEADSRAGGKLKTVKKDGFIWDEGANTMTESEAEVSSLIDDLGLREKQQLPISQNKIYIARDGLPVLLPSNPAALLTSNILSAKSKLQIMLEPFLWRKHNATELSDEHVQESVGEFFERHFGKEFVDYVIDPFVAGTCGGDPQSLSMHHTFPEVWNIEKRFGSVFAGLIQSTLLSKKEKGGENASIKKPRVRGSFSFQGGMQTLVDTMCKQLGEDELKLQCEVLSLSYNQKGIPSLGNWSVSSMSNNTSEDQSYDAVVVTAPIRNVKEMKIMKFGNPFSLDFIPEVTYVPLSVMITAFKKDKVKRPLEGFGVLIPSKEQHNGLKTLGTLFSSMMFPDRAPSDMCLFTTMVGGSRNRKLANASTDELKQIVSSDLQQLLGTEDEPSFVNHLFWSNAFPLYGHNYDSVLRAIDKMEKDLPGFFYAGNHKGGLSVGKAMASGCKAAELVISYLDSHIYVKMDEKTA

[2] = target: T2, Amaranthus mutant PPO (AMARE) (Amaranthus tuberculatus, UniProt Q0NZW9, F420M/R128L)
T2 sequence (Q0NZW9 1-534 R128L/F420M): T1 sequence (Q0NZW9 1-534 R128I/F420M) with I128L

[3] = target: T3, Amaranthus mutant PPO (AMARE) (Amaranthus tuberculatus, UniProt Q0NZW9, F420V)
T3 sequence (Q0NZW9 1-534 F420V): T1 sequence (Q0NZW9 1-534 R128I/F420M) with I128R, M420V

[4] = target: T4, Amaranthus mutant PPO (AMARE) (Amaranthus tuberculatus, UniProt Q0NZW9, F420I/R128A)
T4 sequence (Q0NZW9 1-534 R128A/F420I): T1 sequence (Q0NZW9 1-534 R128I/F420M) with I128A, M420I

[5] = target: T5, Amaranthus mutant PPO (AMARE) (Amaranthus tuberculatus, UniProt Q0NZW9, F420V/R128L)
T5 sequence (Q0NZW9 1-534 R128L/F420V): T1 sequence (Q0NZW9 1-534 R128I/F420M) with I128L, M420V

SMILES | IC50 [1] | IC50 [2] | IC50 [3] | IC50 [4] | IC50 [5]
C#CCN1C(=O)C(F)(F)Oc2cc(F)c(-n3c(=O)n(C)c(=S)n(C)c3=O)cc21 [BAS 850H] | 246 nM | 246 nM | 1.61 nM | 24.6 nM | 1510 nM
CC(C)N(C)S(=O)(=O)NC(=O)c1cc(-n2c(=O)cc(C(F)(F)F)n(C)c2=O)c(F)cc1Cl [saflufenacil] | > 10000 nM | > 10000 nM | 1590 nM | > 10000 nM | > 10000 nM
